For this test, the system named is Mycobacterium tuberculosis. Kind of test: Antibacterial activity against 2-(quinolin-4-yloxy)acetamide resistant Mycobacterium tuberculosis harboring qcrB gene T313A mutant. Type of test: functional.

From ChEMBL document CHEMBL6078678, “Unveiling the Antimycobacterial Potential of Novel 4-Alkoxyquinolines: Insights into Selectivity, Mechanism of Action, and In Vivo Exposure” (J Med Chem, 2024) come the findings set out here.

SMILES strings stand for the structures. Values after ≈ are worked out from the molar mass of the structure shown.

In the case of `CCc1ccc(NCCCOc2cc(C)nc3ccc(Br)cc23)cc1`, the MIC (usually the lowest concentration that inhibits growth of the organism) was found to be 3.13 µM (≈ 1.25 µg/mL).
